Reference: patent US11583517B2, “Dual antagonist of PGD2/DPr2 and Thromboxane A2/TPr receptors and use for treatment of maladaptive immune response or thrombotic diathesis” (priority 2020, dated 2023)
“Also recorded” adds a separate entry of the source.

Key:
acute viral pneumonia = format: in vivo, human
Kawasaki like disease = details: in vivo
Alzheimer's disease [1] = assay: AD patients randomized to four treatment groups; format: in vivo, human; details: long-term follow-up, compared with placebo
silicosis mice = details: silica-induced mouse model; cited from earlier work
TAO [2] = assay: male smokers with TAO, ramatroban versus aspirin; format: in vivo, human; details: 12 months
Excerpt: All patients can be prescribed standard therapies including pentoxifylline, iloprost, calcium antagonists, statins and low molecular weight heparin or oral anticoagulants. […] There is increase in blood flow in the dorsalis pedis and posterior tibial pulses arteries by doppler examination with a decrease in need for surgical procedures and amputations. Improvement was seen of active vascular lesions and pain symptoms.

pneumoconiosis = assay: non-smoking stone crushers, chemoprophylaxis versus placebo; details: 5 years
Parkinson's disease = assay: patients with Parkinson's disease; format: in vivo, human
viral infection = assay: outbreak of viral infection in animal shelter facility; format: in vivo, dogs and cats; details: older animals
Excerpt: In a large animal shelter facility, there was an outbreak of viral infection largely affecting dogs and cats leading to deaths of many older animals, while the young animals survived.

[3] = tested on: dye nephrotoxicity and acute kidney injury; assay: ramatroban versus placebo prior to cardiac catheterization; format: in vivo, human; details: chronic kidney disease or heart failure, compared to placebo
Excerpt: Patients with chronic kidney disease or heart failure are randomized to receive ramatroban versus placebo prior to cardiac catheterization.

[4] = tested on: asthma and allergic rhinitis; details: added to conventional therapeutic regimen
TAO [5] = assay: TAO patient and randomized control trial versus standard of care; format: in vivo, human
sickle cell disease = assay: SCD patient given COVID-19 vaccine with ramatroban; format: in vivo, human
Procedure: A patient with sickle cell disease (SCD) has a past history of multiple vaso-occlusive crisis (VOC), acute chest syndrome (ACS) and ischemic cerebrovascular accidents. Patient is administered the AstraZeneca vaccine as prophylaxis against COVID-19. […] The same regimen is repeated at the time of the second dose of the vaccine. […] Other similar patients with SCD are found to experience high incidence of thrombotic events after COVID-19 vaccines.

[6] = tested on: primary pulmonary hypertension; assay: patient with primary pulmonary hypertension; format: in vivo, human; details: person
Excerpt: Patient is diagnosed to have primary pulmonary hypertension.

Alzheimer's disease [7] = details: in vivo; cited from earlier work
[8] = Patient 6b, two months after start
[9] = retrospective analysis of COVID-19 patients
[10] = retrospective analysis, ramatroban continued after discharge

For `O=C(O)CCn1c2c(c3ccccc31)C[C@H](NS(=O)(=O)c1ccc(F)cc1)CC2` [Ramatroban, 3-[(3R)-3-[(4-fluorophenyl)sulfonylamino]-1,2,3,4-tetrahydrocarbazol-9-yl]propanoic acid], the lung compliance (acute viral pneumonia; long term follow up) was “higher”, the lung fibrosis (acute viral pneumonia; long term follow up) was “significantly reduced” and the “resolution of pneumonia during the hospitalization” value (acute viral pneumonia; versus placebo, with conventional therapy) was “significantly more rapid”. The laboratory parameters (Kawasaki like disease) was “marked improved”, the “prophylaxis against Kawasaki like disease” value (Kawasaki like disease) was “remains healthy” and the cognition and memory (Alzheimer's disease [1]) was “improvement”. The “NLRP3 inflammasome, IL-1beta and caspase-1” value (silicosis mice) was “inhibiting”, the “fibrosis and resulting cardiopulmonary dysfunction” value (silicosis mice) was “inhibiting; also recorded: significantly reducing” and the “infiltration with macrophages, lymphocytes and neutrophils” value (silicosis mice) was “reducing; also recorded: markedly inhibited”. The lung compliance (silicosis mice) was “restoring”, the silica-induced pulmonary inflammation (silicosis mice) was “alleviated” and the “active vascular lesions and pain symptoms” value (TAO [2]) was “Improvement”. For the same compound, the “blood flow in the dorsalis pedis and posterior tibial arteries by doppler” value (TAO [2]) was “increase”, the “development of ulcers in the fingertips and toes, acrocyanosis, necrosis and loss of substance” value (TAO [2]) was “significantly less” and the “need for surgical procedures and amputations” value (TAO [2]) was “decrease”. The lung compliance (pneumoconiosis) was “higher”, the lung fibrosis (pneumoconiosis) was “significantly reduced” and the falls (Parkinson's disease; Patient 6a) was “stops falling”. The hallucinations (Parkinson's disease; Patient 6a) was “no longer experiences hallucinations”, the cognitive function (Parkinson's disease; Patient 6a, at 4 months) was “significant improvement” and the sense of balance (Parkinson's disease; Patient 6a, first week of treatment) was “subjective improvement”. For the same compound, the “cognitive ability and sociability” value (Parkinson's disease; [8]) was “marked improvements”, the hallucinations (Parkinson's disease; [8]) was “reduction” and the physical functioning (Parkinson's disease; [8]) was “significant improvement”. For the same compound, the infection severity (viral infection) was “marked decline”, the mortality (viral infection) was “marked decrease” and the “pulmonary function tests and DLCO” value (COVID-19; after 2 months) was “normal”. For the same compound, the “chest X-ray” value (COVID-19; after 2 months, ramatroban continued as outpatient) was “complete resolution of the infiltrates with no evidence of any pulmonary fibrosis or scarring”, the “time to discharge home” value (COVID-19; person, 75 mg twice a day) was 5 days and the lymphocyte counts (COVID-19; [9]) was “rapid improvement”. For the same compound, the “need for mechanical ventilation” value (COVID-19; [9]) was “less”, the recovery time (COVID-19; [9]) was “shorter” and the thrombocytopenia (COVID-19; [9]) was “rapid recovery”. For the same compound, the “fibrosis and scarring in the lungs” value (COVID-19; [10]) was “reduced”, the lung function (COVID-19; [10]) was “better” and the “dye nephrotoxicity and acute kidney injury” value [3] was “significantly less”. The improvement in symptoms [4] was 25%, the “blood flow to the lower extremities” value (TAO [5]; a) person) was “improvement” and the gangrenous toes (TAO [5]; a), chronic smoker) was “partial resolution and healing”. The ischemic lesions (TAO [5]; b) randomized control trial, versus control group) was “resolution”, the blood flow (TAO [5]; b) randomized control trial, with standard of care versus standard of care) was “improvement” and the “antibody response to vaccine” value (sickle cell disease; AstraZeneca vaccine, ramatroban 75 mg twice a day orally for one month) was “robust”. For the same compound, the “VOC, ACS, myocardial infarction or stroke” value (sickle cell disease; after vaccine, ramatroban 75 mg twice a day orally) was “no recrudescence or recurrence”.

In the case of `COc1ccccc1Oc1c(NS(=O)(=O)c2ccc(C(C)(C)C)cc2)nc(-c2ncccn2)nc1OCCO` [bosentan], the clinical response [6] is reported as “no response”.

In the case of `CCCc1nn(C)c2c(=O)[nH]c(-c3cc(S(=O)(=O)N4CCN(C)CC4)ccc3OCC)nc12` [sildenafil], the clinical response [6] is reported as “no response”.

In the case of “sodium oligomannate [sodium oligomannate (GV-971)]”, the cognition and memory (Alzheimer's disease [1]) is listed as “improvement” and the “cognitive impairment in Alzheimer's disease” value (Alzheimer's disease [7]) is listed as “improves”.
